This passage reports IC50, Emax and EC50 results from patent publication US20130203730A1, “BENZOTHIAZOLES AS GHRELIN RECEPTOR MODULATORS” (AstraZeneca AB, priority 2007, published 2013).

Assay [1] has as its target T1, human GHS receptor (Homo sapiens, UniProt Q92847).
T1 construct: expressed in transfected cells
In words: h bind IC50 (binding assay, hBindingIC50).

Assay [2] has as its target T1, human GHS receptor. In words: Ghrelin IP1 agonist assay (IP1 HTRF) in HEK293s cells expressing human GHS receptor. It is filed as cell-based. The method, then: In HEK293s cells stably expressing human GHS receptor (In-house), agonist activity was assessed by measuring intracellular myo-Inositol 1 phosphate (IP1) using the IP1 HTRF assay kit (Cisbio International).
Cells were harvested using accutase (Sigma), spun down at 1000 rpm for 5 minutes and resuspended in stimulation buffer (as above) containing 0.02% fatty acid free BSA at a density of 1.43E6 cells/ml.
For orientation: In TR-FRET formats the signal depends on donor and acceptor labels being close together.

T1 sequence (Q92847 whole entry): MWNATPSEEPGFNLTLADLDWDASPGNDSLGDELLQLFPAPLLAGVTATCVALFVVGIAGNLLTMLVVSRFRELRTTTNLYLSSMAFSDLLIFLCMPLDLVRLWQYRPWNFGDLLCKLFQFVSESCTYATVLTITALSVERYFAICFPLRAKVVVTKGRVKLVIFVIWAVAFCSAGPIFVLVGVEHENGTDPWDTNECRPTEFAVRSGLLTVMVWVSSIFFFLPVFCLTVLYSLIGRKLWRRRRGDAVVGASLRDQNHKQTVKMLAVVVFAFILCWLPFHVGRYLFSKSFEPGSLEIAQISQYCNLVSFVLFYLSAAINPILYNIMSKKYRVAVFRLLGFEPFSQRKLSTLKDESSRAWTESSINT

In the case of `CCS(=O)(=O)c1ccccc1C(=O)NC(=O)Nc1nc2ccc(S(C)(=O)=O)cc2s1` [Example 135, 2-Ethylsulfonyl-N-[(6-methylsulfonylbenzothiazol-2-yl)carbamoyl]benzamide], the 50% inhibitory concentration (IC50) (usually the concentration needed to halve the response being measured) in assay [1] was determined as 2.22 µM. Also, the Emax in assay [2] (HEK293S, 2 h, agonist effect as % maximal effect of GHRP-6 (5 μM), read-out: h IP1 ag %) was 18.2%. In assay [2] (HEK293s cells stably expressing human GHS receptor, read-out: h IP1 ag EC50), the EC50 (usually the concentration needed to bring the measured effect to its halfway point) stood at 3.68 µM.
